Laboratory results taken from patent US20260364184A1, “COMPOUND BASED ON OXOISOINDOLINYL-SUBSTITUTED TETRAHYDROPYRIMIDINE-DIONE AND USE THEREOF” (GLUETACS THERAPEUTICS (SHANGHAI) CO., LTD., priority 2023, published 2026).
Read-outs that look alike come from different tables or passages of the source. Each block holds one compound with its values, some of them ahead of it.

Columns and labels:
[1] = tested on: Human large cell immunoblastic lymphoma cell line SR; test: Inhibition of SR cell proliferation (CellTiter luminescent viability); type: cell-based; settings: 96 hours; for IC50: read-out: Inhibitory activity (IC50, nM) on tumor cell proliferation, SR; for inhibition at 0.01 µM / inhibition at 0.5 µM: Homo sapiens; for inhibition at 0.01 µM: read-out: Inhibition Rate at 10 nM (%); for inhibition at 0.5 µM: read-out: Inhibition Rate at 500 nM (%)
Procedure, shortened: (§1)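 IC50 is fitted from luminescent viability (CellTiter-Meiluncell) curves. Nine-point, 5-fold dilution series (top stock 2000 μM) are added at 0.5 μL per 100 μL medium to cells plated the day before, with growth at 37 °C and 5% CO2.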

[2] = tested on: Human myeloid monocytic leukemia cell line (MV-4-11); test: Inhibition of MV-4-11 cell proliferation (CellTiter luminescent viability); type: cell-based; settings: Homo sapiens, MV4-11, 96 hours; for inhibition at 0.01 µM: MV-4-11, 10 nM, read-out: Inhibition Rate at 10 nM (%); for inhibition at 0.5 µM: MV-4-11, 500 nM, read-out: Inhibition Rate at 500 nM (%)
Procedure, shortened: as §1

[3] = tested on: Human non-small cell lung cancer cell line NCI-H2228; test: Inhibition of H2228 cell proliferation (CellTiter luminescent viability); settings: Table IB2, ALK inhibitor-based, 96 hours; for inhibition at 0.01 µM: H2228, 10 nM, read-out: Inhibition Rate at 10 nM (%); for inhibition at 0.5 µM: H2228, 500 nM, read-out: Inhibition Rate at 500 nM (%)
Experimental: (§2) The tumor cells used herein were cultured in a cell culture medium listed in table 3 at 37 °C in an incubator with 5% CO2. Prior to experimentation, all cell lines used were correctly identified by STR profiling, and tested negative for mycoplasma contamination using a mycoplasma detection kit through routine screenings.
(§3) The IC50 values of the compounds of the present disclosure (including the compounds in Table 1, Table 2, and Examples 1-468) were determined using the CellTiter-Meiluncell Luminescent Cell Viability Assay Kit from Dalian Meilun Biotech Co., Ltd. The detailed procedure is as follows: Tumor cells were seeded in 96-well cell culture plates at the densities specified in Table 4. On the following day, the test compounds of the present disclosure were subjected to serial dilution. The dilution can be performed according to one of the following two methods: • (1) The first dilution method: The test compounds of the present disclosure (including the compounds in Table 1, Table 2, and Examples 1-468) were subjected to 5-fold serial dilutions starting from a highest concentration of 2000 μM, resulting in a total of 9 concentrations from high to low (2000, 400, 80, 16, 3.2, 0.64, 0.128, 0.0256, 0.00512 μM). Subsequently, 0.5 μL of the test compound dilution was transferred into the 96-well plate containing the cells, with each well containing 100 μL of cell culture medium. […] Into the 96-well plate, the diluted test compounds and corresponding detection reagents were added, resulting in final test compound concentrations of 500 nM and 10 nM, respectively. The experimental procedure is described below using the diluted 2 μM test compound as an example.
(§4) 0.5 μL of the aforementioned diluted compound of the present disclosure (including the compounds in Table 1, Table 2, and Examples 1-468) was added to the seeded cells in 100 μL of medium, yielding a final test compound concentration of 10 nM. After the cells were treated with the compounds of the present disclosure for a specified period, the cell viability assay reagent was added to the culture medium according to the kit's instructions to determine cell viability. […] All controls were treated using the same procedure as the compounds of the present disclosure. The growth inhibition curves for the compounds of the present disclosure were plotted using Prism GraphPad software, and the IC50 values were calculated therefrom.

[4] = target: T1, human Cereblon WT GST-tagged protein (CRBN) (Homo sapiens, UniProt Q96SW2); test: CRBN binding by HTRF (Cereblon binding kit)
T1 construct: purchased CISBIO 64BDCRBNPEH
T1 sequence (Q96SW2 whole entry): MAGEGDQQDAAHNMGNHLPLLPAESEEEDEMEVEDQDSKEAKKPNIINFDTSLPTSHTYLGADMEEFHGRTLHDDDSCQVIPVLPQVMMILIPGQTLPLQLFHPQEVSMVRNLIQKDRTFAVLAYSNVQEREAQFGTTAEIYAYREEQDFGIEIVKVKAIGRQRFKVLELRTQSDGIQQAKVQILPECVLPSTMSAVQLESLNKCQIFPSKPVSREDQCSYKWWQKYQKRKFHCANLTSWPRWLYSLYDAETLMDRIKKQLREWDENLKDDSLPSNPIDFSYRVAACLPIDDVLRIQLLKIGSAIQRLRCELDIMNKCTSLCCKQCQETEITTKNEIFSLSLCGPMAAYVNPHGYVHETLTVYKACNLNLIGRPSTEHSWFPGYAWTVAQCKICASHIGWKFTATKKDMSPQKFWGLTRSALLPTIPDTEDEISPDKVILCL
Procedure, shortened: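 GST-tagged human Cereblon WT was incubated 3 h at room temperature with compound, thalidomide-Re tracer and Eu anti-GST antibody. Final compound concentrations were 10 to 0.00064 µM (7 points) or 2 and 0.5 µM. Inhibition rate was calculated from HTRF 665/620 nm ratios versus solvent and blank controls.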

[5] = tested on: Human gastric cancer cell line MGC803; test: Inhibition of MGC803 tumor cell proliferation (CellTiter luminescent viability); type: cell-based; settings: MGC803, 96 hours, read-out: Inhibitory activity (IC50, nM) on tumor cell proliferation, MGC803
Experimental: as §2, §3, §4

[6] = tested on: Human T lymphocytic leukemia cell line (Jurkat); test: Inhibition of Jurkat cell proliferation (CellTiter luminescent viability); type: cell-based; settings: 96 hours, read-out: Inhibitory activity (IC50, nM) on tumor cell proliferation, Jurkat
[7] = tested on: Human Multiple myeloma cell line (MM.1S); test: Inhibition of MM.1S cell proliferation (CellTiter luminescent viability); type: cell-based; settings: 96 hours, read-out: Inhibitory activity (IC50, nM) on tumor cell proliferation, MM.1S
Procedure, shortened: as §1

[8] = tested on: JEKO-1; test: Inhibition of JEKO-1 cell proliferation (CellTiter luminescent viability); type: cell-based, human; settings: JEKO-1, 96 hours, read-out: Inhibitory activity (IC50, nM) on tumor cell proliferation, JEKO-1
Experimental: as §2, §3, §4

[9] = target: T2, IRAK4 (Homo sapiens, UniProt Q9NWZ3); test: Western blot degradation of IRAK4; type: cell-based; settings: hPBMC Cell; 24 hours
T2 construct: expression of target proteins in cells; endogenous in cells
T2 sequence (Q9NWZ3 1-460): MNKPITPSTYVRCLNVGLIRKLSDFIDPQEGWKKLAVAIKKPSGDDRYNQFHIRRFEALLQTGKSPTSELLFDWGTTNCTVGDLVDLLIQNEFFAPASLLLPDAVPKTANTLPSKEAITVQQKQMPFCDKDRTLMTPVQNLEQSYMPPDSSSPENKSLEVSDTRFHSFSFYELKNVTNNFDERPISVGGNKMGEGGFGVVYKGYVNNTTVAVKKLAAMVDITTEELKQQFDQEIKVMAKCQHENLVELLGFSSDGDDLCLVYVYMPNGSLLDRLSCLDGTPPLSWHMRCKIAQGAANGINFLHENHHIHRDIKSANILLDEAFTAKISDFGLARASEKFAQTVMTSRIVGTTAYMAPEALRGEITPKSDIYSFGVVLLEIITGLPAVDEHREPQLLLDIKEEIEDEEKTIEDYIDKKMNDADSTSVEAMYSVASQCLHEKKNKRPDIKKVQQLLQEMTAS
Procedure, shortened: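 Compound-treated cells harvested; lysates denatured 5 min at 95 °C, run on SDS-PAGE, blotted to NC membrane, blocked 1 h RT, probed with antibodies. Densitometry vs DMSO → DC50; target normalised to internal control → % remaining, degradation = 1 − remaining.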

[10] = tested on: Human non-small cell lung cancer cell line NCI-H1975; test: Inhibition of H1975 cell proliferation (CellTiter luminescent viability); type: cell-based; settings: Table IC1, BTK inhibitor-based; H1975, 96 hours; read-out: Inhibitory activity (IC50, nM) on tumor cell proliferation, H1975
Procedure, shortened: as §1

[11] = Inhibition of RPMI-8226 cell proliferation (CellTiter luminescent viability); type: cell-based; settings: Homo sapiens; Table IA4, IRAK4 inhibitor-based; RPMI-8226, 10 nM, 96 hours; read-out: Inhibition Rate at 10 nM (%)
[12] = tested on: Human B-Cell Lymphoma Cells (RPMI-8226); test: as above; type: cell-based; settings: Table IA4, IRAK4 inhibitor-based, RPMI-8226, 500 nM, 96 hours, read-out: Inhibition Rate at 500 nM (%)
[13] = Table IB2, ALK inhibitor-based, 10 nM
[14] = Table IB2, ALK inhibitor-based, 500 nM
[15] = Table IA1, IRAK4 inhibitor-based compounds
[16] = Table IA1, IRAK4 inhibitor-based
[17] = Table IA3, IRAK4 inhibitor-based

- IC50 ([1]; Table IB1, ALK inhibitor-based): 1000 to 5000 nM
- Inhibition Rate at 0.5 μM (%) ([4]; 0.5 μM): a (0% < a ≤ 10%)
- Inhibition Rate at 2 μM (%) ([4]; 2 μM): a (0% < a ≤ 10%)
Structure (SMILES): CCc1cc2c(cc1N1CCC(N3CCOCC3)CC1)C(C)(C)c1[nH]c3cc(C#N)ccc3c1C2=O [alectinib, Alectinib, reference compound]
- Inhibition Rate at 10 nM (%) [1, 13]: IBa4 (15% ≤ IBa4 < 20%)
- Inhibition Rate at 500 nM (%) [1, 14]: IBa10 (80% ≤ IBa10 < 90%)
- inhibition at 0.01 µM ([2]; Table IB2, ALK inhibitor-based): 5 to 10%
- inhibition at 0.5 µM ([2]; Table IB2, ALK inhibitor-based): 30 to 45%
- inhibition at 0.01 µM [3]: 5 to 10%
- inhibition at 0.5 µM [3]: 20 to 30%

- IC50 [5, 15]: 500 to 1000 nM
- IC50 [6, 16]: 500 to 1000 nM
- IC50 [1, 16]: 500 to 1000 nM
- IC50 [7, 16]: 500 to 1000 nM
- Degradation of substrate protein IRAK4 (substrate protein remaining %) [9]: A (0%≤substrate protein remaining %≤80%)
Structure (SMILES): O=C1CCN(N2Cc3cc(CN4CCC(N5CCN(c6ccc7c(c6)nc(NC(=O)c6cccc(C(F)(F)F)c6)n7[C@H]6CC[C@@H](CO)CC6)CC5)CC4)ccc3C2=O)C(=O)N1 [GT-05019, N-(5-(4-(1-((2-(2,4-dioxotetrahydropyrimidin-1(2H)-yl)-1-oxoisoindolin-5-yl)methyl)piperidin-4-yl)piperazin-1-yl)-1-((1s,4s)-4-(hydroxymethyl)cyclohexyl)-1H-benzo[d]imidazol-2-yl)-3-(trifluoromethyl)benzamide]
- IC50 [8, 16]: 500 to 1000 nM

Structure (SMILES): C=CC(=O)N1CCC[C@@H](n2nc(-c3ccc(Oc4ccccc4)cc3)c3c(N)ncnc32)C1 [ibrutinib, Ibrutinib, reference compound]
- IC50 ([5]; Table IC1, BTK inhibitor-based): > 10000 nM
- IC50 ([6]; Table IC1, BTK inhibitor-based): > 10000 nM
- IC50 ([7]; Table IC1, BTK inhibitor-based): > 10000 nM
- IC50 ([8]; Table IC1, BTK inhibitor-based): > 10000 nM
- IC50 [10]: 1000 to 5000 nM

Structure (SMILES): COc1cc(N2CCC(N3CCN(Cc4ccc5c(c4)C(=O)N(N4CCC(=O)NC4=O)C5=O)CC3)CC2)ccc1Nc1ncc(Cl)c(Nc2ccccc2P(C)(C)=O)n1 [GT-08147, 5-((4-(1-(4-((5-chloro-4-((2-(dimethylphosphoryl)phenyl)amino)pyrimidin-2-yl)amino)-3-methoxyphenyl)piperidin-4-yl)piperazin-1-yl)methyl)-2-(2,4-dioxotetrahydropyrimidin-1(2H)-yl)isoindoline-1,3-dione]
- inhibition at 0.01 µM [1, 13]: 10 to 15%
- inhibition at 0.5 µM [1, 14]: 90 to 100%
- inhibition at 0.01 µM ([2]; Table IB2, ALK inhibitor-based): 20 to 30%
- inhibition at 0.5 µM ([2]; Table IB2, ALK inhibitor-based): 60 to 80%
- inhibition at 0.01 µM [3]: 20 to 30%
- inhibition at 0.5 µM [3]: 45 to 55%

Structure (SMILES): COc1cc(N2CCC(N3CCN(Cc4ccc5c(c4)CN(N4CCC(=O)NC4=O)C5=O)CC3)CC2)ccc1Nc1ncc(Cl)c(Nc2ccccc2P(C)(C)=O)n1 [GT-08146, 1-(5-((4-(1-(4-((5-chloro-4-((2-(dimethylphosphoryl)phenyl)amino)pyrimidin-2-yl)amino)-3-methoxyphenyl)piperidin-4-yl)piperazin-1-yl)methyl)-1-oxoisoindolin-2-yl)dihydropyrimidine-2,4 (1H,3H)-dione]
- inhibition at 0.01 µM [1, 13]: 45 to 55%
- inhibition at 0.5 µM [1, 14]: 90 to 100%
- inhibition at 0.01 µM ([2]; Table IB2, ALK inhibitor-based): 15 to 20%
- inhibition at 0.5 µM ([2]; Table IB2, ALK inhibitor-based): 90 to 100%
- inhibition at 0.01 µM [3]: 20 to 30%
- inhibition at 0.5 µM [3]: 60 to 80%

- IC50 ([5]; Table IC1, BTK inhibitor-based): > 10000 nM
- IC50 ([6]; Table IC1, BTK inhibitor-based): > 10000 nM
- IC50 ([7]; Table IC1, BTK inhibitor-based): > 10000 nM
- IC50 [10]: > 10000 nM
Structure (SMILES): C=CC(=O)N1CCC(c2ccc(C(N)=O)c(-c3ccc(Oc4ccccc4)cc3)n2)CC1 [Orelabrutinib, reference compound]
- IC50 ([8]; Table IC1, BTK inhibitor-based): > 10000 nM

- IC50 [5, 15]: 5000 to 10000 nM
- IC50 [6, 16]: 5000 to 10000 nM
- IC50 [1, 16]: 1000 to 5000 nM
- IC50 [7, 16]: > 10000 nM
Structure (SMILES): CC[C@@H]1[C@H](F)C(=O)N[C@@H]1COc1nccc2cc(C(N)=O)c(OC)cc12 [PF06650833, PF-06650833, reference compound]
- IC50 [8, 16]: 500 to 1000 nM
- inhibition at 0.01 µM [2, 17]: 20 to 36%
- inhibition at 0.5 µM [2, 17]: 20 to 36%
- inhibition at 0.01 µM [11]: 0 to 5%
- inhibition at 0.5 µM [12]: 10 to 15%

Structure (SMILES): COc1cc(N2CCC(N(C)Cc3ccc4c(c3)CN(N3CCC(=O)NC3=O)C4=O)CC2)ccc1Nc1ncc(Cl)c(Nc2ccccc2P(C)(C)=O)n1 [GT-08148, 1-(5-(((1-(4-((5-chloro-4-((2-(dimethylphosphoryl)phenyl)amino)pyrimidin-2-yl)amino)-3-methoxyphenyl)piperidin-4-yl)(methyl)amino)methyl)-1-oxoisoindolin-2-yl)dihydropyrimidine-2,4 (1H,3H)-dione]
- inhibition at 0.01 µM [1, 13]: 30 to 45%
- inhibition at 0.5 µM [1, 14]: 90 to 100%
- inhibition at 0.01 µM ([2]; Table IB2, ALK inhibitor-based): 5 to 10%
- inhibition at 0.5 µM ([2]; Table IB2, ALK inhibitor-based): 60 to 80%
- inhibition at 0.01 µM [3]: 15 to 20%
- inhibition at 0.5 µM [3]: 45 to 55%
